Results as given in patent publication EP4692094A1 (Beijing Konruns Pharmaceutical Co., Ltd., priority 2023, dated 2024).

Molecular target: T1, KAT6A (Homo sapiens, UniProt Q92794)
T1 construct: purchased active motife (Active Motif) 81223
Assay: Enzymatic activity assay for KAT6A acetyltransferase (TR-FRET, acetylation of histone substrate H3)
Assay type: biochemical
Description: The acetylation effect of KAT6A on histone substrate H3 was determined using the TR-FRET (time-resolved fluorescence resonance energy transfer) method.
• 1) The compounds prepared in the examples of the present disclosure were each dissolved in dimethylsulfoxide to give solutions at a concentration of 10 mmol/L, and then the solutions were diluted to 0.2 mmol/L, i.e., 1 µL of the compound was added to 49 µL of DMSO, and 3-fold dilution was performed to give 10 concentrations. • 2) 50 nL of the test compounds (example compounds) were transferred to 384 reaction plates using Echo, two replicates for each compound, and the plates were centrifuged at a rotation speed of 1000 rpm for 1 min, the final concentration of dimethylsulfoxide (DMSO) being 0.5%. • 3) 2.5 µL of the reaction mixtures obtained in step 2 was added to the 384 reaction plates in step 2), and the plates were centrifuged at 1000 rpm for 1 min and incubated at 25 °C for 10 min. • 4) 2.5 µL of Bio-H3&AcCOA (acetyl-CoA) reaction solution was added to the 384 reaction plates in step 3), and the plates were centrifuged at a rotation speed of 1000 rpm for 1 min and incubated at 25 °C for 90 min. • 5) 5 µL of Eu-Ab& Ulight-SA detection solution was added to the 384 reaction plates in step 4), and the plates were centrifuged at 1000 rpm for 1 min and incubated at 25 °C for 60 min. • 6) The HTRF […] signals were read using a BMG high-throughput drug-screening multi-mode microplate reader.
The acetylation level of the histone H3 was analyzed by the GraphPad Prism 8 software. The reading of the negative control (0.5% DMSO wells) was set as 0% inhibition rate, and the reading of the positive control (wells with the highest concentration of the control compound) was set as 100% inhibition rate. The inhibition rates were calculated, and then IC50 values (half maximal inhibitory concentration) of test compounds were obtained by using a software nonlinear fitting formula; [formula]
Datapositive control: mean of positive control well values; Datanegative control: mean of negative control well values. Table 3. Enzymatic inhibitory activity of example compounds

T1 sequence (Q92794 whole entry): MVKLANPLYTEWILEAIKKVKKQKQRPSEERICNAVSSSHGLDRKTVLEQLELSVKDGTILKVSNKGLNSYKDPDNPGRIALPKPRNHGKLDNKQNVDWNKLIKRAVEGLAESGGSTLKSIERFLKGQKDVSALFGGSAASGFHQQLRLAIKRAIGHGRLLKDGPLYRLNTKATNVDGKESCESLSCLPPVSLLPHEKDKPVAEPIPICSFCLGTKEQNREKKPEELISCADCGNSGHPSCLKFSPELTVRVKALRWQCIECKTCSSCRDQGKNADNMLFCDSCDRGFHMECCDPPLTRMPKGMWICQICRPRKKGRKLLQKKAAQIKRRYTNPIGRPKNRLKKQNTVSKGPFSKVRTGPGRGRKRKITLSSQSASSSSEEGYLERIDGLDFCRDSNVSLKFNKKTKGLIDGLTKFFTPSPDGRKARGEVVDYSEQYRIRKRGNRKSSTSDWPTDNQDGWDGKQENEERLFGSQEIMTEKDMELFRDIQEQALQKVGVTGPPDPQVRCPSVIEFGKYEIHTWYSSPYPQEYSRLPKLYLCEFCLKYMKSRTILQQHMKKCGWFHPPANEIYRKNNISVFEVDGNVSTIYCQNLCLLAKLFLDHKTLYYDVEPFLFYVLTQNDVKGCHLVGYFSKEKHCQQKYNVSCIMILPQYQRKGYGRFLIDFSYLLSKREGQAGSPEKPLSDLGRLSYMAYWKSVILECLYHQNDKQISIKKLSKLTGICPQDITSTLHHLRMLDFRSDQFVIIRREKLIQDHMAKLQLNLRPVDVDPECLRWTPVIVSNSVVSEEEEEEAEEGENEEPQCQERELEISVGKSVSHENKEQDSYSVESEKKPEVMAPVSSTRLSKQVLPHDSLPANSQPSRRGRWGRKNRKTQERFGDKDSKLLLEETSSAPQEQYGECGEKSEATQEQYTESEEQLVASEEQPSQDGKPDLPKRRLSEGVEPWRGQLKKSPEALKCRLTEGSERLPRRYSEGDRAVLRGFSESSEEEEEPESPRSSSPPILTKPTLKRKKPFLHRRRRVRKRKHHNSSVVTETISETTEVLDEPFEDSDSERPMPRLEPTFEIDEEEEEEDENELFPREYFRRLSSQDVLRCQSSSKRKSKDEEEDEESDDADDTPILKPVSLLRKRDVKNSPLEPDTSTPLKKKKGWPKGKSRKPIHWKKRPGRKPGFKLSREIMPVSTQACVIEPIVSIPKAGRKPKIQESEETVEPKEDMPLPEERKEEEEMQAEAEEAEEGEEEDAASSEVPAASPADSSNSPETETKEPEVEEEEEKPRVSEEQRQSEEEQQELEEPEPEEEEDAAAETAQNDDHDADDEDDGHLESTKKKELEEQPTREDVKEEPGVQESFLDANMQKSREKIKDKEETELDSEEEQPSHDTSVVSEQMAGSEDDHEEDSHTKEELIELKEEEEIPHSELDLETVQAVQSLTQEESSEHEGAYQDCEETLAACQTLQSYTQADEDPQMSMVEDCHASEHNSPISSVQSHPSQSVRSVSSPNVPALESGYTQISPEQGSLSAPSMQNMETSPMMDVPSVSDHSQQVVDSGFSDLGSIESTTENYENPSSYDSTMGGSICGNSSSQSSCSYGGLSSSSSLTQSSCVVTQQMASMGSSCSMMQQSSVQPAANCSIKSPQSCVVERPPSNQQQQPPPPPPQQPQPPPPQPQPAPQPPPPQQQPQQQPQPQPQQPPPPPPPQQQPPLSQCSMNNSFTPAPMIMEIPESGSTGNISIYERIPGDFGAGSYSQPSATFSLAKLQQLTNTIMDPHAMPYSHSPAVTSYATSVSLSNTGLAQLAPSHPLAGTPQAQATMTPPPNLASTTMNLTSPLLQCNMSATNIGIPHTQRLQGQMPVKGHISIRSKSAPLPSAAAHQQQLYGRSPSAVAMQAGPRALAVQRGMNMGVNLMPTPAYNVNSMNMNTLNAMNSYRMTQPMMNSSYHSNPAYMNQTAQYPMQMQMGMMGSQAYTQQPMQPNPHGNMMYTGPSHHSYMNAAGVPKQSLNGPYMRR

| Structure (SMILES) | IC50 |
| --- | --- |
| COc1nc(C(F)n2cccn2)cc2onc(NS(=O)(=O)c3cccc4c3OCC4)c12 (stereo not shown) [Example 18, N-(6-(Fluoro(1H-pyrazol-1-yl)methyl)-4-methoxyisoxazolo[4,5-c]pyridin-3-yl)-2,3-dihydrobenzofuran-7-sulfonamide] | 7.23 nM |
| COc1nc(Cn2nccn2)cc2onc(NS(=O)(=O)c3cccc4c3OCC4)c12 [Example 12, N-(6-((2H-1,2,3-Triazol-2-yl)methyl)-4-methoxyisoxazolo[4,5-c]pyridin-3-yl)-2,3-dihydrobenzofuran-7-sulfonamide] | 66.7 nM |
| COc1nc(Cn2cccn2)cc2onc(NS(=O)(=O)c3ccc4oc(C)nc4c3)c12 [Example 52, N-(6-((1H-Pyrazol-1-yl)methyl)-4-methoxyisoxazolo[4,5-c]pyridin-3-yl)-2-methylbenzo[d]oxazole-5-sulfonamide] | 34.3 nM |
| COc1nc(Cn2cccn2)cc2onc(NS(=O)(=O)c3cccc4nc(C)oc34)c12 [Example 48, N-(6-((1H-Pyrazol-1-yl)methyl)-4-methoxyisoxazolo[4,5-c]pyridin-3-yl)-2-methylbenzo[d]oxazole-7-sulfonamide] | 22.7 nM |
| COc1ccc(S(=O)(=O)Nc2noc3cc(Cn4cccn4)nc(OC)c23)c2c1CCO2 [Example 72, N-(6-((1H-Pyrazol-1-yl)methyl)-4-methoxyisoxazolo[4,5-c]pyridin-3-yl)-4-methoxy-2,3-dihydrobenzofuran-7-sulfonamide] | 5.1 nM |
| COc1cc2c(cc1S(=O)(=O)Nc1noc3cc(Cn4cccn4)nc(OC)c13)OCCC2 [Example 67, N-(6-((1H-Pyrazol-1-yl)methyl)-4-methoxyisoxazolo[4,5-c]pyridin-3-yl)-6-methoxy-3,4-dihydro-1H-benzopyran-7-sulfonamide] | 1.31 nM |

The remaining lines, values ahead:

| IC50 | Structure (SMILES) |
| --- | --- |
| 2.18 nM | COc1cc2c(cc1S(=O)(=O)Nc1noc3cc(Cn4cccn4)nc(OC)c13)OC(C)(C)C2 [Example 105, N-(6-((1H-pyrazol-1-yl)methyl)-4-methoxyisoxazolo[4,5-c]pyridin-3-yl)-5-methoxy-2,2-dimethyl-2,3-dihydrobenzofuran-6-sulfonamide] |
| 1.21 nM | COc1cc2c(c(S(=O)(=O)Nc3noc4cc(Cn5cccn5)nc(OC)c34)c1)OCCC2 [Example 84, N-(6-((1H-Pyrazol-1-yl)methyl)-4-methoxyisoxazolo[4,5-c]pyridin-3-yl)-6-methoxy-3,4-dihydro-1H-benzopyran-8-sulfonamide] |
| 10 nM | COc1c(S(=O)(=O)Nc2noc3cc(Cn4cccn4)nc(OC)c23)ccc2ccoc12 [Example 86, N-(6-((1H-Pyrazol-1-yl)methyl)-4-methoxyisoxazolo[4,5-c]pyridin-3-yl)-7-methoxybenzofuran-6-sulfonamide] |
| 5.86 nM | COc1nc(Cn2cccn2)cc2onc(NS(=O)(=O)c3cc(C#N)cc4c3OCCC4)c12 [Example 107, N-(6-((1H-pyrazol-1-yl)methyl)-4-methoxyisoxazolo[4,5-c]pyridin-3-yl)-6-cyano-3,4-dihydro-1H-benzopyran-8-sulfonamide] |
| 7.18 nM | COc1nc(Cn2cccn2)cc2onc(NS(=O)(=O)c3ccc(C#CC4CC4)c4ccoc34)c12 [Example 90, N-(6-((1H-Pyrazol-1-yl)methyl)-4-methoxyisoxazolo[4,5-c]pyridin-3-yl)-4-(cyclopropylethynyl)benzofuran-7-sulfonamide] |
| 0.84 nM | COc1cc(OC)c(S(=O)(=O)Nc2noc3cc(Cn4cccn4)nc(OC)c23)c2c1CCO2 [Example 98, N-(6-((1H-pyrazol-1-yl)methyl)-4-methoxyisoxazolo[4,5-c]pyridin-3-yl)-4,6-dimethoxy-2,3-dihydrobenzofuran-7-sulfonamide] |
| 1.77 nM | [2H]C([2H])(c1cc2onc(NS(=O)(=O)c3cc4c(cc3OC)CCO4)c2c(OC)n1)n1cccn1 [Example 104, N-(6-((1H-pyrazol-1-yl)methyl-d2)-4-methoxyisoxazolo[4,5-c]pyridin-3-yl)-5-methoxy-2,3-dihydrobenzofuran-6-sulfonamide] |
